Test results as given in patent US7939052B2, “Method of measuring the biological activity of an urotensin II receptor” (priority 2005, dated 2011).
“Also recorded” adds a separate entry of the source. Residues, ends and D or L forms follow the SMILES beside them.

Columns and labels:
[1] = system: urotensin II receptor; assay: Inhibition of U-II induced increase in the redness or skin temperature of the rat ear; assay type: in vivo
Procedure: (§1) Urantide (PUT-3639-P1, Peptide International) was administered or co-administered with U-II (3 μg/kg) to a rat via subcutaneous administration. The lateral inner ear surface temperature of the rat was measured using a Raytek High Performance Infra-red Thermometer at different time points, wherein the time point of Urantide administration or Urantide and U-II co-administration was marked as 0 minute.
(§2) The nitric oxide syntheses inhibitor, N^g nitro-L-arginine methylester (L-NAME), or prostacyclin inhibitor, indomethacin, was administered to the rat alone or in combination with U-II. L-NAME (N5751, Sigma, 100 mg/kg) suspended in saline was administered to a rat via […] (i.p.) administration 4 hour prior to injecting the rat with the U-II. Indomethacin (17378, Sigma, 30 mg/kg) suspended in carboxymethylcellulose was administered to a rat via p.o. (per os, L—by mouth or orally) 2 hours prior to injecting the rat with the U-II. Dexamethasone (D1756, Sigma, 8 mg/kg) suspended in saline was administered to a rat via i.p. 2 hours prior to injecting the rat with the U-II. After taking a pre-dose or baseline ear surface temperature, 0.1 ml of U-II at various concentrations formulated in sterile normal saline was injection subcutaneously to the mid-scapular region of the rat. The lateral inner ear surface temperature of the rat was measured using a Raytek High Performance Infra-red Thermometer at different time points, wherein the time point of U-II injection was marked as 0 minutes.

[2] = system: urotensin II receptor; assay: Increase in the redness or skin temperature of the rat ear after administration of the substance; assay type: in vivo; conditions: data not shown
Procedure: (§3) The examples described herein used conscious rat as the testing animal, although similar results were also observed from anesthetized rats. Other animals can also be utilized following similar procedures. All procedures involving animals were conducted in an animal facility fully accredited by the American Association for Assessment and Accreditation of Laboratory Animal Care (AAALAC) and in accordance with The Guide for the Care and Use of Laboratory Animals (NIH). Protocols were approved by the Internal Animal Care and Use Committee (IACUC). Results are expressed as mean±s.e. mean. Comparisons between groups were assessed using two-sided Student's t-test. P<0.05 was considered significant.
(§4) Unless otherwise indicated, Rat U-II was obtained from SIGMA (U-7507, St Louis, Mo.). Urantide was purchased from Peptide International (PUT-3639-P1, Louisville, Ky.). Experiments were performed with male, Sprague-Dawley rats (Charles River, Wilmington, Mass.), weighing 250-350 g.
(§5) Rats were acclimated at 18° C. for at least 1 hour before U-II administration. The room temperature was kept at 18° C. throughout ear surface temperature measurements. Rat U-II suspended in sterile saline (0.1 ml) at various concentrations was administered to a conscious rat via unilateral […] (i.p.) injection over a period of 5 second. In the serial dose experiment, serial doses of U-II were administered to a conscious rat via subcutaneous (s.c.) routes. The lateral inner ear surface temperature of the rat was measured using a Raytek High Performance Infra-red Thermometer (Raytek Corp., Santa Cruz, Calif.) at different time points.
as §1
as §2, with “Dexamethasone (D1756, Sigma, 8 mg/kg) suspended in saline was administered to a rat via i.p. 2 hours prior to injecting the rat with the U-II. After taking a pre-dose or baseline ear surface temperature, 0.1 ml of U-II at various concentrations formulated in sterile normal saline was injection subcutaneously to the mid-scapular region of the rat.” left out

[3] = rat, nicotinic acid administration; cited from earlier work
[4] = target: T1, urotensin II receptor (Rattus norvegicus, UniProt P49684); assay: Inhibition of U-II induced increase in the redness or skin temperature of the rat ear; assay type: in vivo; conditions: 150 μg/kg co-administered s.c. with U-II 3 μg/kg
T1 construct: from tissue; host or cells: whole animal: male Sprague-Dawley rats (Charles River), in vivo
T1 sequence (P49684 1-386): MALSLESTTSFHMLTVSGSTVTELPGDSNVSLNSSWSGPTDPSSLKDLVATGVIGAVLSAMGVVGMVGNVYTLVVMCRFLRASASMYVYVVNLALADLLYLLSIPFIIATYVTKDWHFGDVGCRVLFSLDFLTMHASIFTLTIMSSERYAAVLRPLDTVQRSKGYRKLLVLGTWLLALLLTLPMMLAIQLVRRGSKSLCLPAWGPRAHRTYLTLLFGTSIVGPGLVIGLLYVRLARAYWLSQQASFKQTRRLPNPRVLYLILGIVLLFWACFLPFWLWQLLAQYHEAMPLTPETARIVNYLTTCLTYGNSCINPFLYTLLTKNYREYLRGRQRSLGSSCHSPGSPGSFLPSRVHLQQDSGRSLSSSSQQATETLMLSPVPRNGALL
Procedure: as §1, §2

[5] = target: T2, human UT receptor (Homo sapiens, UniProt Q9UKP6); conditions: CHO cells over-expressing the human UT receptor; cited from earlier work
T2 construct: host or cells: CHO cells over-expressing the human UT receptor
T2 sequence (Q9UKP6 1-389): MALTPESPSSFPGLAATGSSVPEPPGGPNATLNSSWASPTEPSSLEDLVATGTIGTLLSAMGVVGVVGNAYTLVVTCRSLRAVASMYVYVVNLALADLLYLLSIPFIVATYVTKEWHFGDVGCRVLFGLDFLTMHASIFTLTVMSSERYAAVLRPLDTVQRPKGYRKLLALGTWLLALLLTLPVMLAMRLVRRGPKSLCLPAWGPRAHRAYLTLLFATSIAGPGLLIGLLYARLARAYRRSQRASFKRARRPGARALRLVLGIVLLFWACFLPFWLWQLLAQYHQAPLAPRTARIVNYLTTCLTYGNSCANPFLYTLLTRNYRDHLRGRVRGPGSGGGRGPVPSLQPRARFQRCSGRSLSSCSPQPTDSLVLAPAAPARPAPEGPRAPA

[6] = target: T3, UT receptor (Rattus norvegicus, UniProt P49684); conditions: competitive UT receptor antagonist, rat aorta; cited from earlier work
T3 construct: pure UT receptor antagonist in rat aorta vasoconstriction assays; host or cells: rat aorta tissue
T3 sequence (P49684 1-386): T1 sequence (P49684 1-386)

[7] = target: T1, urotensin II receptor; assay: Increase in the redness or skin temperature of the rat ear after administration of the substance; assay type: in vivo
Procedure: as §3, §4, §5, §1
as §2, with “Dexamethasone (D1756, Sigma, 8 mg/kg) suspended in saline was administered to a rat via i.p. 2 hours prior to injecting the rat with the U-II. After taking a pre-dose or baseline ear surface temperature, 0.1 ml of U-II at various concentrations formulated in sterile normal saline was injection subcutaneously to the mid-scapular region of the rat.” left out

[8] = system: panel of receptor/ion channels; assay: Binding to a panel of receptor/ion channels; conditions: data not shown

COC(=O)[C@@H](N)CCCNC(=N)N[N+](=O)[O-] [L-NAME, N^g nitro-L-arginine methylester]
effect on U-II induced ear flush or increase of ear temperature ([1]; 100 mg/kg i.p. 4 hour prior to U-II 3 μg/kg s.c., 100 mg/kg): blocked; also recorded: markedly inhibited
ear flush or ear surface temperature change, substance alone ([2]; 100 mg/kg i.p.): caused no ear flush or ear surface temperature change

COc1ccc2c(c1)c(CC(=O)O)c(C)n2C(=O)c1ccc(Cl)cc1 [indomethacin]
effect on U-II induced ear flush or increase of ear temperature ([1]; 30 mg/kg p.o. 2 hours prior to U-II 3 μg/kg s.c., 30 mg/kg): blocked
effect on U-II induced ear flush or increase of ear temperature ([1]; 30 mg/kg p.o. 2 hours prior to U-II 3 μg/kg s.c., listed as Indomethacin, 30 mg/kg): abolished
ear flush or ear surface temperature change, substance alone ([2]; 30 mg/kg p.o.): caused no ear flush or ear surface temperature change

O=C(O)c1cccnc1 [nicotinic acid]
increase of the ear temperature [3]: less than 1.5 °C

CC(C)[C@H](NC(=O)[C@@H]1CSSC(C)(C)[C@H](NC(=O)[C@@H](N)CC(=O)O)C(=O)N[C@@H](Cc2ccccc2)C(=O)N[C@H](Cc2c[nH]c3ccccc23)C(=O)N[C@@H](CCCN)C(=O)N[C@@H](Cc2ccc(O)cc2)C(=O)N1)C(=O)O [urantide] (HELM PEPTIDE1{D.[Pen].F.[dW].[Orn].Y.C.V}$PEPTIDE1,PEPTIDE1,2:R3-7:R3$$$V2.0)
effect on U-II induced ear flush or increase of ear temperature [4]: blocked
activity at human UT receptor [5]: potent U-II agonist
pA2 [6]: 8.3
ear flush or ear surface temperature change, substance alone ([7]; 150 μg/kg s.c.): caused no ear flush or ear surface temperature changes
binding activity to proteins within a panel of receptor/ion channels [8]: minimal binding activity

URP: U-II-related peptide, SEQ ID NO: 10, ACFWKYCV, intramolecular disulfide bond (PUT-4408-V, Peptide International)
redness or skin temperature of the rat after administration ([7]; URP 100 μg/kg s.c.): induced an increase in skin temperature; also recorded: induced an increase in the redness or skin temperature
